The source of these data is PubChem BioAssay (NCI).

Common to all, as to experiment: NCI-60 cell line screen, 48 h
In assay [1] the test system is MDA-MB-231 breast.
Assay [2] deals with SK-OV-3 ovarian.
Assay [3] relates to PC-3 prostate.
For assay [4], the system named is SF-295 CNS.
Assay [5] relates to TK-10 renal.
Assay [6] relates to NCI/ADR-RES ovarian.
Assay [7] has as its system UACC-257 melanoma.
The test system of assay [8] is OVCAR-3 ovarian.
Assay [9] concerns SK-MEL-2 melanoma.
For assay [10], the system named is SN12C renal.

Each structure is given as a SMILES string. Values joined by “and” are separate entries in the source; they are usually repeats but may differ in a detail not shown here. Identical values can stand only once.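 Interpolation was linear, between the two tested concentrations surrounding the appropriate level; five concentrations were tested over 48 hours in 96-well plates. GI50 marks 50% less growth. Definition used: TGI = concentration required for complete inhibition of growth.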 Where only a bound is given, the exact number is not on record here.

Turning to `COC1=CC(c2ccc[nH]2)=N/C1=C\c1[nH]c(C)c(C(=O)OC(C)C)c1C`, the GI50 in assay [1] is 0.0252 µM; in assay [2] it was 0.831 µM; in assay [3] it was 0.0633 µM; in [4], 0.0264 µM; in assay [5], 0.0541 µM; in [6] it was 0.0367 µM. The GI50 in assay [7] is 0.0898 µM; in assay [8] it was 0.05 µM; in assay [9] it was 0.02 µM; in assay [10], 0.068 µM. The TGI in [1] is 0.274 µM; in assay [2], 4.65 µM; in [3], 4.7 µM; in assay [4], 0.123 µM; in assay [5] it was 2.49 µM; in [6], 1.42 µM. The TGI came out at 1.87 µM in assay [7], 0.586 µM in assay [8], 0.0525 µM in [9] and 2.01 µM in [10].

As for `CCOC(=O)[C@]1(OC(C)=O)C[C@H](OC(C)=O)[C@@H](C(F)COP(=O)(OCc2ccccc2)OCc2ccccc2)O1` (some centres not stated), the TGI in [1] is over 100 µM; in assay [2], over 100 µM; in [3], 88 µM and > 100 µM; in [4], over 100 µM; in [5], 35.7 µM and > 100 µM; in assay [6] it was over 100 µM. Further, the TGI in assay [7] is over 100 µM; in assay [8] it was 79.4 µM and > 100 µM; in assay [9], 78.4 µM and > 100 µM; in [10], over 100 µM. For the same compound, the GI50 in assay [4] is 47.9 µM and > 100 µM; in assay [5] it was 18.8 µM and > 100 µM; in assay [8] it was 29.6 µM and > 100 µM; in assay [9], 25 µM and > 100 µM.

For `CC1=C(C(=O)Nc2ccc(Cl)c(Cl)c2)C(c2cccc(Oc3ccccc3)c2)NC(=S)N1` (configuration not stated), the GI50 was 8.69 µM in assay [1]; 8.1 µM in [2]; 9.71 µM in assay [3]; 8.15 µM in assay [4]; 11.3 µM in assay [5]; 10.2 µM in assay [6]. The GI50 in assay [7] was 9.73 µM; in assay [8] it was 1.87 µM; in assay [9], 9.38 µM; in assay [10], 8.75 µM. For the same compound, the TGI in assay [1] was found to be 16.6 µM; in assay [2] it was 16.3 µM; in assay [3], 29.1 µM; in assay [4] it was 15.3 µM; in [5], 19.7 µM; in assay [6], 17.4 µM. Moreover, the TGI in assay [7] stood at 22 µM; in [8], 8.15 µM; in [9], 18.9 µM; in [10], 15.9 µM.

In the case of `Cc1ccc2c(=O)cc(-c3ccc(F)cc3)[nH]c2n1`, the TGI in [1] was over 100 µM; in assay [2] it was over 100 µM; in assay [3], 88.1 µM; in assay [4] it was over 100 µM; in assay [5], over 100 µM; in assay [6], 86.9 µM. Further, the TGI in [7], in assay [8], in assay [9] and in assay [10] was over 100 µM each time. Moreover, the GI50 in [3] is 20.9 µM; in [4], 36.8 µM; in assay [8] it was 32.2 µM.

Take `COC1=CC(=O)c2nc(-c3ccncc3)[nH]c2C1=O`: the GI50 in [1], in [2], in [3], in assay [4], in [5] and in [6] was over 100 µM throughout. Further, the GI50 in assay [7], in assay [8], in [9] and in [10] was over 100 µM throughout. The TGI in assay [1], in assay [2], in [3], in assay [4], in assay [5] and in [6] was over 100 µM each time. For the same compound, the TGI in assay [7], in assay [8], in [9] and in assay [10] was over 100 µM throughout.

For the compound `OCc1ccc(N2CCC2c2ccc(F)cc2)cc1Cl` (configuration not stated), the GI50 in assay [1] is 22.6 µM; in assay [2], 20.5 µM; in assay [3] it was 21 µM; in assay [4], 0.438 µM; in assay [5] it was 0.225 µM; in assay [6] it was 23.7 µM. In addition, the GI50 was 0.278 µM in assay [7], 2.34 µM in assay [8], 11.4 µM in assay [9] and 18.2 µM in assay [10]. Besides, the TGI in [1] is over 68.3 µM; in assay [2], over 89.1 µM; in assay [3], 67.1 µM; in assay [4] it was 7.62 µM; in assay [5], 1.61 µM; in [6], over 88.8 µM. For the same compound, the TGI in assay [7] was 1.98 µM; in assay [8], 13.8 µM; in assay [9], 29.3 µM; in assay [10] it was over 63.8 µM.

On to `O=C1C=C(Cl)C(=O)C(c2ccc(Cl)cc2)=C1`, for which the TGI is 36 µM in [1]; over 100 µM in assay [2]; 29.3 µM in assay [3]; over 100 µM in assay [4]; 35.9 µM in assay [5]; 79 µM in assay [6]. Moreover, the TGI was found to be 40.7 µM in [7], 34.3 µM in assay [8], 44.3 µM in [9] and 44.4 µM in assay [10].

Turning to `COc1cc(Cc2cnc(/N=C3\C(=O)N(CN4CCN(c5c(F)cc6c(=O)c(C(=O)O)cn(C7CC7)c6c5OC)CC4C)c4ccc(F)cc43)nc2N)cc(OC)c1OC` (configuration not stated), the GI50 in assay [1] is 11.8 µM; in [2], 15 µM; in assay [3], 13 µM; in assay [4] it was 14.4 µM; in [5], 11.6 µM; in assay [6], 11.8 µM. Moreover, the GI50 was 22.3 µM in [7], 5.87 µM in assay [8], 37.8 µM in assay [9] and 15.6 µM in assay [10]. Also, the TGI in assay [1] stood at 30.3 µM; in [2], 43.1 µM; in [3] it was 25.7 µM; in assay [4], 30.2 µM; in assay [5], 25.3 µM; in assay [6], 29.4 µM. Moreover, the TGI was 44.1 µM in [7], 22.1 µM in [8], over 100 µM in assay [9] and 31.1 µM in [10].
